From patent US9682928B2 (NeuroPro Therapeutics, Inc., priority 2009, dated 2017)
Where two headings read alike, the source gives them in different places.

Experiments:
human subjects = conditions: cited from earlier work
Sprague-Dawley rats = assay: Epileptiform activity induced by i.v. kainic acid in urethane-anesthetized rats; assay type: in vivo, rat; conditions: intravenous, cumulative dose 40-60 mg/kg
Method: Body temperature was monitored using a rectal temperature probe and maintained at 35-37° C. with a heating pad; heart rate (EKG) was continuously monitored. The jugular vein was cannulated on one side for intravenous drug administration. Rats were placed in a Kopf stereotaxic device (with the top of the skull level), and a bipolar stainless-steel microelectrode insulated to 0.5 mm of the tip was inserted to a depth of 0.5-1.2 mm from the cortical surface to record electroencephalographic (EEG) activity in the fronto-parietal cortex. In some experiments, a 2M NaCl-containing pipette was lowered to a depth of 2.5-3.0 mm to record hippocampal EEG. Data were stored on VHS videotape and analyzed off-line.
Following the surgical preparation and electrode placement, animals were allowed to recover for 30 minutes before the experiments were initiated with an injection of kainic acid (10-12 mg/kg i.v.). […] Experiments were terminated with the intravenous administration of urethane. Animal care was in accordance with NIH guidelines and approved by the University of Washington Animal Care Committee.

rats [1] = assay: Fear potentiated startle (FPS) test in rats; assay type: in vivo, rat; conditions: i.v.; furosemide 100 mg/kg, bumetanide 70 mg/kg
Method: FPS is a commonly used assessment of therapeutic value of anxiolytic compounds in the rat. Rats received a 30 min period of habituation to the FPS apparatus. 24-hr later baseline startle amplitudes were collected. The rats will be divided into two matched groups based on baseline startle amplitudes. Following baseline startle amplitude collection 20 light/shock pairings were delivered on 2 sessions over 2 consecutive days (i.e., 10 light/shock pairings per day). On the final day, one group of rats received an injection (i.v.) of a bumetanide analog and the other group received vehicle only. Immediately following injections, startle amplitudes were assessed during startle alone trials and startle plus fear (light followed by startle) trials. Fear potentiated startle (light+startle amplitudes minus startle alone amplitudes) was compared between the treatment groups.
Animals were trained and tested in four identical stabilimeter devices (Med-Associates). Briefly, each rat was placed in a small Plexiglas cylinder. The floor of each stabilimeter consists of four 6-mm-diameter stainless steel bars spaced 18 mm apart through which shock can be delivered. Cylinder movements result in displacement of an accelerometer where the resultant voltage is proportional to the velocity of the cage displacement. Startle amplitude is defined as the maximum accelerometer voltage that occurs during the first 0.25 sec after the startle stimulus is delivered. The analog output of the accelerometer is amplified, digitized on a scale of 0-4096 units and stored on a microcomputer. Each stabilimeter is enclosed in a ventilated, light-, and sound-attenuating box. All sound level measurements were made with a Precision Sound Level Meter. The noise of a ventilating fan attached to a sidewall of each wooden box produces an overall background noise level of 64 dB. The startle stimulus is a 50 ms burst of white noise (5 ms rise-decay time) generated by a white noise generator. The visual conditioned stimulus used was illumination of a light bulb adjacent to the white noise source. The unconditioned stimulus was a 0.6 mA foot shock with duration of 0.5 sec, generated by four constant-current shockers located outside the chamber. The presentation and sequencing of all stimuli were under the control of the microcomputer.
FPS procedures consisted of 5 days of testing; during days 1 and 2 baseline startle responses were collected, days 3 and 4 light/shock pairings were delivered, day 5-testing for fear potentiated startle was conducted.
Matching. On the first two days all rats were placed in the Plexiglas cylinders and 3 min later presented with 30 startle stimuli at a 30 sec interstimulus interval. An intensity of 105 dB was used. […]

rats [2] = assay: Contextual fear conditioning in rats; assay type: in vivo, rat; conditions: I.V.; furosemide 100 mg/kg, bumetanide 50 mg/kg
Method: Contextual fear conditioning involves pairing an aversive event, in this case moderate foot shock, with a distinctive environment. The strength of the fear memory is assessed using freezing, a species-typical defensive reaction in rats, marked by complete immobility, except for breathing. […] However, if they are allowed to explore the distinctive environment sometime before the immediate shock, they show intense anxiety and fear when placed back into the same environment. By procedurally dividing contextual fear conditioning into two phases, the effects of treatments on memory for the context (specifically a hippocampus based process) from learning the association between context and shock or experiencing the aversiveness of the shock (which depend upon emotional response circuitry including amygdala) were separately studied. […] The experiment employed 24 rats. […] Each rat was again placed into the same environment for 8 min during which time freezing was measured, as an index of Pavlovian conditioned fear. […] Measurement of freezing was accomplished through an overhead video camera connected to the microcomputer and was automatically scored using a specialty piece of software, FreezeFrame (OER Inc., Reston, Va.) Total freezing time was analyzed in a one-way analysis of variance (ANOVA) test, with drug dose as the […] factor.

primate = assay: Acute primate seizure models; conditions: in vivo
Text: FIG. 13 depicts epileptiform spikes and bursts generated using software for the automatic quantification epileptiform activity. FIG. 13A depicts after-discharge activity that was elicited by 4 seconds of electrical stimulation to primate sensory cortex. The software developed by Haglund and Hochman (2007) finds the envelope around a burst of spikes and calculates the duration of the burst, the number of spikes within the burst, and the average spike amplitude of all spikes comprising the burst.
FIG. 13B depicts a typical spike generated by an acute bicuculline focus in primate motor cortex. The bicuculline model generates epileptiform activity that is similar to spontaneous interictal spiking in human subjects. Analysis of the data by the software identifies the time of occurrence of each spike and its peak-to-peak amplitude. This software can automatically process entire data sets consisting of hours of recorded data from multiple traces and generate an output of the data. Statistical analysis of data sets from multiple experiments can then be used to analyze the effects of various treatments (e.g., compounds that suppress epliptiform activity). See Haglund and Hochman (2007) “Imaging of Intrinsic Optical Signals in Primate Cortex during Epileptiform Activity.” Epilepsia 48(Suppl. 4): 65-74; See also Haglund and Hochman (Feb. 23, 2005) J. Neurophysiol. 94: 907-918.

Method for rat hippocampal slices: Sprague-Dawley rats (males and females; 25-35 days old) were decapitated, the top of the skull was rapidly removed, and the brain chilled with ice-cold oxygenated slicing medium. […] A hemisphere of brain containing hippocampus was blocked and glued (cyanoacrylic adhesive) to the stage of a Vibroslicer (Frederick Haer, Brunsick, Me.). […] In the recording chamber, the slices were perfused with oxygenated recording medium at 34-35° C. […] In most slice experiments, simultaneous extracellular field electrode recordings were obtained from CA1 and CA3 areas. A bipolar tungsten stimulating electrode was placed on the Schaffer collaterals to evoke synaptically-driven field responses in CA1. Stimuli consisted of 100-300 μsec duration pulses at an intensity of four times the population-spike threshold. After discharges were evoked by a 2 second train of such stimuli delivered at 60 Hz. […] The tissue was allowed to recover for 10 minutes between stimulation trials. In each experiment, the initial response of CA1 to synaptic input was first tested by recording the field potential evoked by a single stimulus pulse. […] Rat hippocampal slices, prepared as described above, were perfused with a high-K^+ solution until extended periods of spontaneous interictal-like bursting were recorded simultaneously in CA3 (top traces) and CA1 (lower traces) pyramidal cell regions (FIGS. 18A and 18B). […] Hippocampal slices were prepared from Sprague-Dawley adult rats as described previously. Transverse hippocampal slices 100 μm thick were cut with a vibrating cutter. Slices typically contained the entire hippocampus and subiculum. After cutting, slices were stored in an oxygenated holding chamber at room temperature for at least one hour before recording. […] In some experiments, normal or low-chloride medium was used containing bicuculline.

NS(=O)(=O)c1cc(C(=O)O)c(NCc2ccco2)cc1Cl [Furosemide]
Minimum concentration required to block both the after discharges and optical changes (rat hippocampal slices): 1.25 mM
Latency to block of bursting (rat hippocampal slices; 0-Ca2+ experiments, 5 mM furosemide): 15 to 20 min
Stimulation-evoked after discharge activity and optical changes (rat hippocampal slices; 2.5 mM furosemide, 20 minutes of perfusion): blocked
Spontaneous bursts in high-K+ (10 mM) medium (rat hippocampal slices; 2.5 mM furosemide, after 45 minutes of perfusion): blocked in a reversible manner
Latency to block of bursting (rat hippocampal slices; all other protocols, 2.5 mM furosemide): 20 to 60 min
Anticonvulsant resistant bursts after 3 hours of 0-Mg medium (rat hippocampal slices; one hour after the addition of furosemide): blocked
Average reduction in the duration of stimulation-evoked after-discharge activity (human subjects; 8 patients): 85%
Average reduction in spiking frequency (human subjects; five patients, 20 mg intravenous bolus): approximately 60%
Mean interspike interval following furosemide treatment (human subjects; five patients, 9.6 s prior to furosemide): 21.9 s
Patients with complete blockade of after-discharge activity (human subjects; of 8 patients): 4 patients
Patients with reduction by more than 50% of duration and amplitude of after-discharge activity (human subjects; of 8 patients): 4 patients
Kainic acid-evoked seizure activity (electrical status epilepticus) (Sprague-Dawley rats): blocked seizure activity
Latency to block of seizure activity (Sprague-Dawley rats): 30 to 45 min
Difference score on the test day vs vehicle alone (rats [1]): statistically significantly lower difference score
Difference score one week after treatment vs vehicle alone (rats [1]): higher difference score
Freezing vs vehicle alone (rats [2]): significantly less freezing
Suppression of epileptiform activity (primate): suppresses epileptiform activity
